Drawing on PubChem BioAssay (NCI), this text covers GI50 and TGI for 10 molecules.

Each structure is given as a SMILES string.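 These data come from cells grown in 96-well plates and exposed to compound for 48 hours at five concentrations. GI50 marks 50% less growth. TGI denotes the concentration required for complete inhibition of growth.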

Among the test systems are OVCAR-4 ovarian; NCI-H460 lung; UACC-257 melanoma; HCT-15 colon; NCI-H522 lung; BT-549 breast; TK-10 renal; M14 melanoma; SF-295 CNS; SR leukemia.
Common to all, as to assay: NCI tumour cell line growth inhibition, 48 h

For `CCn1cc(C(=O)O)c(=O)c2cc(F)c(N3CCN(S(=O)(=O)c4cccc5ccccc45)CC3)cc21`, the GI50 was 2.6 µM with OVCAR-4 ovarian; 3.43 µM in the experiment on NCI-H460 lung; 2.72 µM with UACC-257 melanoma; 3.15 µM with HCT-15 colon; 2.78 µM with NCI-H522 lung; 3.69 µM with BT-549 breast. Also, the GI50 in the experiment on TK-10 renal was 7.6 µM; with M14 melanoma, 4.37 µM. The TGI in the experiment on OVCAR-4 ovarian was above 100 µM; in the experiment with NCI-H460 lung, above 100 µM; in the experiment on UACC-257 melanoma, 7.72 µM; with HCT-15 colon, above 100 µM; in the experiment on NCI-H522 lung, 8.04 µM; in the experiment on BT-549 breast it was above 100 µM. The TGI in the experiment with TK-10 renal and in the experiment with M14 melanoma was above 100 µM throughout.

For `FC(F)(F)Oc1cccc(-c2cc(NCCCCCCNc3cc(-c4cccc(OC(F)(F)F)c4)nc4ccc(N5CCCC5)cc34)c3cc(N4CCCC4)ccc3n2)c1`, the GI50 in the experiment with OVCAR-4 ovarian was 1.7 µM; in the experiment on NCI-H460 lung, 1.84 µM; with UACC-257 melanoma, 1.89 µM; in the experiment on HCT-15 colon it was 1.84 µM; with NCI-H522 lung it was 2.05 µM; in the experiment with BT-549 breast, 1.78 µM. Also, the GI50 is 1.78 µM with TK-10 renal, 1.84 µM in the experiment with M14 melanoma and 1.69 µM in the experiment with SF-295 CNS. Further, the TGI in the experiment with OVCAR-4 ovarian turned out to be 3.19 µM; with NCI-H460 lung, 3.4 µM; in the experiment with UACC-257 melanoma, 3.88 µM; in the experiment with HCT-15 colon, 3.69 µM; in the experiment with NCI-H522 lung, 4.76 µM; with BT-549 breast, 3.72 µM. In addition, the values for the TGI in the experiment with TK-10 renal, in the experiment with M14 melanoma and in the experiment on SF-295 CNS were 3.37 µM, 3.65 µM and 3.11 µM, respectively.

For the molecule `O=C1CC(c2ccccc2)Oc2ccccc21` (configuration not stated), the TGI in the experiment with OVCAR-4 ovarian is above 100 µM; in the experiment on NCI-H460 lung, above 100 µM; with SR leukemia, 50.6 µM; in the experiment with UACC-257 melanoma it was above 100 µM; in the experiment on HCT-15 colon, above 100 µM; in the experiment with BT-549 breast, 42.1 µM. In addition, the TGI in the experiment with TK-10 renal, with M14 melanoma and in the experiment on SF-295 CNS was above 100 µM each time.

As to `CCn1c2c(c3ccccc3c1=O)C(=O)c1ccccc1-2`, the TGI with OVCAR-4 ovarian, in the experiment with UACC-257 melanoma, in the experiment with HCT-15 colon, with NCI-H522 lung, in the experiment on BT-549 breast and with TK-10 renal was above 100 µM each time. The TGI in the experiment with M14 melanoma and with SF-295 CNS was above 100 µM each time.

`COc1ccc(OC)c(/C=C/c2nc(=S)n(-c3ccc(Cl)cc3)[nH]2)c1`: the GI50 is 20.6 µM in the experiment with OVCAR-4 ovarian; 4.53 µM in the experiment on NCI-H460 lung; above 100 µM with UACC-257 melanoma; 4.39 µM with HCT-15 colon; 4.07 µM in the experiment on NCI-H522 lung; 9.38 µM in the experiment on BT-549 breast. For the same molecule, the GI50 in the experiment on TK-10 renal was 25.8 µM; in the experiment with M14 melanoma, 4.24 µM; in the experiment on SF-295 CNS it was 4.16 µM. Also, the TGI with OVCAR-4 ovarian, with NCI-H460 lung, with UACC-257 melanoma, in the experiment with HCT-15 colon, in the experiment with NCI-H522 lung and in the experiment with BT-549 breast was above 100 µM each time. Besides, the TGI with TK-10 renal, in the experiment with M14 melanoma and in the experiment with SF-295 CNS was above 100 µM throughout.

Consider `CSC1=Nc2c(c(C)c(C)n2COC(CO)CO)C2=NC(=O)CN12`, for which the GI50 in the experiment on OVCAR-4 ovarian, in the experiment with NCI-H460 lung, in the experiment with SR leukemia, with UACC-257 melanoma, in the experiment on HCT-15 colon and in the experiment on NCI-H522 lung was above 100 µM throughout. Besides, the GI50 in the experiment with BT-549 breast, in the experiment with TK-10 renal and with SF-295 CNS was above 100 µM in each case. Also, the TGI with OVCAR-4 ovarian, in the experiment with NCI-H460 lung, in the experiment with SR leukemia, in the experiment on UACC-257 melanoma, with HCT-15 colon and in the experiment with NCI-H522 lung was above 100 µM in each case. Moreover, the TGI in the experiment with BT-549 breast, in the experiment on TK-10 renal and in the experiment on SF-295 CNS was above 100 µM in each case.

Take `COC(=O)OC1C(O[C@H]2C[C@H]3[C@@H]4CC=C5C[C@@H](O)CC[C@]5(C)[C@H]4CC[C@]3(C)[C@H]2[C@H](C)C(=O)CCC(C)C)OCC(O)C1OC1OCC(O)C(O)C1OC(=O)c1ccc(OC)cc1` (some centres not stated): the GI50 in the experiment with OVCAR-4 ovarian was 0.0823 µM; in the experiment on NCI-H460 lung it was 0.00957 µM; with UACC-257 melanoma it was 0.00543 µM; with HCT-15 colon it was 0.137 µM; in the experiment with NCI-H522 lung it was 0.0146 µM; in the experiment on BT-549 breast it was below 0.00275 µM. Besides, the GI50 was 0.496 µM in the experiment on TK-10 renal and below 0.00275 µM in the experiment with SF-295 CNS. Also, the TGI was above 27.5 µM in the experiment on OVCAR-4 ovarian; 0.332 µM in the experiment on NCI-H460 lung; 0.0562 µM in the experiment with UACC-257 melanoma; 1.26 µM in the experiment on HCT-15 colon; 0.183 µM with NCI-H522 lung; 3.45 µM in the experiment with BT-549 breast. Further, the TGI with TK-10 renal is 17.5 µM; in the experiment on SF-295 CNS it was below 0.00275 µM.

Regarding `CC(=O)O[C@H]1C(=O)[C@@]2(C)C([C@H](OC(=O)c3ccccc3)[C@]3(O)C[C@H](OC(=O)[C@H](O)[C@@H](NC(=O)c4ccccc4)c4ccccc4)C(C)=C1C3(C)C)[C@]1(OC(C)=O)CO[C@@H]1C[C@@H]2O` (some centres not stated), the GI50 with OVCAR-4 ovarian is 0.198 µM; with NCI-H460 lung, below 0.005 µM; in the experiment on SR leukemia it was below 0.005 µM; in the experiment on UACC-257 melanoma, above 50 µM; in the experiment with HCT-15 colon it was 0.382 µM; with BT-549 breast, 0.0212 µM. Moreover, the GI50 in the experiment on SF-295 CNS was 0.0173 µM. In addition, the TGI is above 50 µM in the experiment with OVCAR-4 ovarian; above 50 µM in the experiment on NCI-H460 lung; above 50 µM in the experiment on SR leukemia; above 50 µM with UACC-257 melanoma; above 50 µM in the experiment on HCT-15 colon; 0.0146 µM in the experiment on NCI-H522 lung. Besides, the TGI in the experiment with BT-549 breast, in the experiment on TK-10 renal and with SF-295 CNS was above 50 µM throughout.

Regarding `COC(=O)CCC(NC(=S)N/N=C/c1cccs1)C(=O)OC` (configuration not stated), the TGI in the experiment with OVCAR-4 ovarian, in the experiment with NCI-H460 lung, with SR leukemia, in the experiment on UACC-257 melanoma, in the experiment with HCT-15 colon and with NCI-H522 lung was above 100 µM in each case. For the same molecule, the TGI in the experiment on TK-10 renal, with M14 melanoma and with SF-295 CNS was above 100 µM in each case.

As for `CCOC(=O)c1nc(C)oc1C(F)(F)F`, the TGI in the experiment with OVCAR-4 ovarian, in the experiment on NCI-H460 lung, in the experiment on SR leukemia, with UACC-257 melanoma, with HCT-15 colon and in the experiment on NCI-H522 lung was above 100 µM each time. In addition, the TGI in the experiment with TK-10 renal, in the experiment with M14 melanoma and in the experiment with SF-295 CNS was above 100 µM in each case.
